According to publication PMC7947795, “Rapamycin-Loaded Lipid Nanocapsules Induce Selective Inhibition of the mTORC1-Signaling Pathway in Glioblastoma Cells” (Frontiers in Bioengineering and Biotechnology, 2021):

Key:
[1] = Rapamycin solubility assay in oils (RP-HPLC); type: physicochemical
Experimental: […] […] The mixture of 90% acetonitrile and 10% water (v/v) was used as a mobile phase, and delivered at a flow rate of 2.0 mL/min. The injection volume was 10 μL and the retention time was about 2.3 min.

[2] = system: HIF-1α protein expression; assay: Western blot HIF-1α; type: cell-based, Human; conditions: U87MG, 1 μM, 21 and 0.4% O2, 0Gy
Experimental: (§1) U87MG cells (2.4 × 10^5 cells/mL) harvested in the exponential growth phase were seeded in dishes in DMEM medium with 10% FBS, at 37°C in humidified atmosphere containing 5% CO2 and 21 or 0.4% O2. Once the cells incubated in the exponential growth phase, serum-contained medium was removed and replaced by serum-deprived DMEM supplemented with 1% N1 supplement. […] 8Gy radiation was performed 6 h after the treatment by Faxitron CP-160 (cf. section Irradiation Procedure).
(§2) Cells were scrapped and lysed by sonication for 10 s.
(§3) Equal amounts of protein from each sample, estimated by the Bio-Rad Protein Assay (Richmond, CA), were separated by electrophoresis through a 4–20% SDS-polyacrylamide gel (Mini-protean® TGX™ Ge, BioRad), transferred to PVDF membranes (AmershamHybond, GE Healthcare, Buckinghamshire, UK) and blocked with 4% non-fat dry milk in 1X TBS plus 0.1% Tween 20 at RT for 1 h. The membranes were washed and incubated with a primary antibody diluted in 2% BSA in 1X TBS plus 0.1% Tween 20 overnight at 4°C. The membranes were then washed and incubated again for 1 h at RT with peroxidase-conjugated anti-rabbit or anti-mouse secondary antibody. The bound antibody was detected using the enhanced chemiluminescence reagent kit SuperSignal West Femto (Thermo Scientific, Waltham, MA, USA) and read with a bioluminescence detector Image Quant Las 4000 (GE Healthcare, USA).

[3] = system: U87MG cells; assay: MTS cytotoxicity assay; type: cell-based; conditions: Homo sapiens, U-87 MG, serum-free medium, 4 h treatment, read at 48 h
Experimental: Two assays were performed to determine the cytotoxicity effect of LNC-rapa on the glioblastoma cell line U87MG:MTS (3-(4,5-dimethylthiazol-2-yl)-5-(3-carboxymethoxyphenyl)-2-(4-sulfophenyl)-2H-tetrazolium) (Promega, Charbonnières, France) and clonogenic assay by crystal violet coloration (Sigma-Aldrich).
For the MTS assay, U87MG cells (5 × 10^4 cells/mL) harvested in the exponential growth phase were seeded in a 24-well plate in DMEM medium with 10% FBS, in humidified atmosphere (5% CO2) at 37°C. Once the cells incubated in the exponential growth phase, serum-contained medium was removed and replaced by serum-deprived DMEM supplemented with 1% N1 supplement (Sigma-Aldrich). […] 8Gy radiation was performed 6 h after the onset of initial treatment by Faxitron CP-160 (Faxitron X-rays, Lincolnshire, UK). Medium was changed every day. Forty-eight hours following the treatment, MTS reagent was diluted (1:5) in U87MG cell medium and incubated for 2 h at 37°C. The absorbance was measured at 492 nm using Multiskan® microplate spectrophotometer (Thermo Scientific).
Depending on the condition considered, the cells were placed throughout the experiment in a conventional 21% O2 incubator at 37°C/5% CO2 (normoxia) or 0.4% O2 (hypoxia) at 37°C/5% CO2 in an InVivO2 400 SCI-tive hypoxia workstation (Ruskinn); they are only placed in isolated flasks for the duration of the irradiations.

[4] = no reference given; cited from earlier work
[5] = system: 9L cells (rat glioma cells); design: method as in Tyler et al., 2011; conditions: in vitro, ref Tyler et al., 2011; cited from earlier work
[6] = Spectral analysis of rapamycin stability in Labrafac; type: physicochemical; conditions: short cycles of heating and cooling at 70°C
Text: Spectral analysis was then made by use of the CLARIOstar microplate reader (BMG Labtech, Champigny-sur-Marne, France).

[7] = system: mTOR phosphorylation (Ser2448); assay: Western blot p-mTOR/HSC70; type: cell-based, Human; conditions: U87MG, 1 μM, serum-free medium, 21 and 0.4% O2, 16 h
[8] = system: phosphorylation of Akt on Ser473; assay: Western blot Akt-p; type: cell-based, Human; conditions: U87MG, 1 μM, 21 and 0.4% O2, 0Gy
Experimental: as §1, §2, §3

[9] = system: U87MG cells; assay: Clonogenic assay by crystal violet coloration; type: cell-based, Human; conditions: 1 μM
Experimental: Irradiation was performed with the CP-160 cabinet x-ray system (Faxitron, Edimex, Le Plessis Grammoire, Angers, France) which delivers a dose of 1,5 grays by min. […] Irradiation was performed with cells covered.
Once the cells incubated in the exponential growth phase, serum-contained medium was removed and replaced by serum-deprived DMEM supplemented with 1 % N1 supplement. […] 8Gy radiation was performed 6 h after the treatment by Faxitron CP-160.

- Degradation at 90°C in oil ([1]; 90°C, 3 h, whatever the oil used): completely degraded
- Dissolution rate ([1]; Captex 8000, 90°C): 0%
- Dissolved rapamycin ([1]; Captex 8000, 90°C, initial 16.8 mg/mL): 0 mg/mL
- Dissolution rate ([1]; Captex 8000, RT): 9.5%
- Dissolved rapamycin ([1]; Captex 8000, RT, initial 19.0 mg/mL): 1.8 mg/mL
- Dissolution rate ([1]; Labrafac, 90°C): 0%
- Dissolved rapamycin ([1]; Labrafac, 90°C, initial 21.1 mg/mL): 0 mg/mL
- Dissolution rate ([1]; Labrafac, RT): 6.3%
- Dissolved rapamycin ([1]; Labrafac, RT, initial 24.0 mg/mL): 1.5 mg/mL
- Dissolution rate ([1]; Miglyol 812, 90°C): 0%
- Dissolved rapamycin ([1]; Miglyol 812, 90°C, initial 17.1 mg/mL): 0 mg/mL
- Dissolution rate ([1]; Miglyol 812, RT): 7.3%
- Dissolved rapamycin ([1]; Miglyol 812, RT, initial 19.2 mg/mL): 1.4 mg/mL
- Stability of rapamycin in Labrafac [6]: confirmed
Compound: CO[C@H]1C[C@@H]2CC[C@@H](C)[C@@](O)(O2)C(=O)C(=O)N2CCCC[C@H]2C(=O)O[C@H]([C@H](C)C[C@@H]2CC[C@@H](O)[C@H](OC)C2)CC(=O)[C@H](C)/C=C(\C)[C@@H](O)[C@@H](OC)C(=O)[C@H](C)C[C@H](C)/C=C/C=C/C=C/1C [Rapamycin]
- HIF-1α protein expression [2]: reduced
- IC50 ([3]; 0.4% pO2 (hypoxia)): 34.6 µM
- IC50 ([3]; 21% pO2 (normoxia)): 20.5 µM
- logP [4]: 4.3
- concentration causing growth inhibition [5]: 0.01 µg/mL
- Inhibition of mTOR phosphorylation (Ser2448) [7]: strong inhibition of mTOR phosphorylation
- Akt-p protein level (Ser473) [8]: enhance Akt-p protein level
- Synergistic effect with radiation treatment (clonogenic assay) ([9]; 8Gy 6 h after treatment, 21 or 0.4% O2): do not exert any synergistic effect
- Effect on cell survival (clonogenic assay) ([9]; 21 or 0.4% O2, 10 days, significant at 0.4% O2): only moderate effects
